# Experimental data taken from paper PMC9316000, “Preclinical Drug Pharmacokinetic, Tissue Distribution and Excretion Profiles of the Novel Limonin Derivate HY-071085 as an Anti-Inflammatory and Analgesic Candidate in Rats and Beagle Dogs” (Pharmaceuticals, 2022).
# Like-named read-outs stand apart in the source and are kept apart here.
# Key:
# [1] = Stability in rat plasma under storage conditions; type: in vitro ADME; details: for stability in plasma, accuracy: n=5
# Description: The stability of HY-071085 in rat plasma was evaluated by analyzing five repeated QC samples under various storage conditions: long-term freezing (freezing at −80 °C for 30 days), repeated freezing and thawing (thawing with a 37 °C water bath after freezing at −80 °C, repeated three times), normal temperature placement (a 37 °C constant temperature water bath for 8 h), and injector placement (4 °C for 24 h).
# [2] = Pharmacokinetics after single-dose intragastric administration in beagle dogs; type: in vivo; details: both sexes, dog, plasma; for bioavailability: 1.25 mg/kg intragastric vs intravenous, from AUC0-∞, read-out: absolute oral bioavailability; for AUC: read-out: AUC0-tn; for Vd/F: read-out: Vss/F
# Description: Male and female beagle dogs were administered low (1.25 mg/kg), medium (2.5 mg/kg) and high (5 mg/kg) doses of HY-071085 by gastric gavage, and blood samples were collected from the forelimb vein at various time points before and 8 h after administration in order to analyze the concentration of HY-071085 in the plasma. The profiles of the mean plasma concentration of HY-071085 versus time in dogs are presented in Figure 7, and the PK parameters are listed in Table 2. There was no gender difference in the pharmacokinetics in dogs (Figure 8). The AUCtn ratio for the three doses was 1:3.8:11.9, and the AUC0-∞ ratio between doses was 1:3.6:11.3, which was greater than the dose increase ratio (1:2:4), as shown in Figures S3 and S4.
# In vivo PK profiling in dogs: Beagle dogs (approximately 8–10 kg in weight) were purchased from Jiangsu Yadong Experimental Animal Research Institute Co. Ltd (Nanjing, China). Before the experiment, several beagle dogs were randomly divided into several groups, half males and half females in each group. Four cycles of single-dose administration experiments were carried out, and the cleaning period was 3–5 days. Repeated-dose administration was carried out after the end of four cycles of single-dose administrations and cleaning periods. According to the dosage for the rats, the dosage for the beagle dogs was converted via the body surface area method. The HY-071085 active pharmaceutical ingredients were administered with a dosage volume of 2 mL/kg body weight. The whole-blood samples were centrifuged at 8000 rpm for 5 min, and the plasma samples were separated and stored at –80 °C until the analysis.
# According to the obtained plasma concentration time data, the pharmacokinetic parameters were calculated using Phoenix WinNonlin 8.1 software. The pharmacokinetic parameters—i.e., the area under the curve (AUC), mean residence time (MRT), clearance rate (Cl/F) and steady-state apparent distribution volume (Vss/F)—were calculated by the method of moments, which was estimated according to the following formulae: AUCtn=∑Ci+Ci−1ti−ti−1/2 AUC∞=AUCtn+Cm/λ AUMCtn=∑tiCi+ti−1Ci−1ti−ti−1/2 AUMC∞=AUMCtn+Ctntn/λ+1/λ^2 MRT=AUMC∞/AUC∞ Cl/F=Dose/AUC Vss/F=Cl∗MRT where Ctn is the plasma concentration of tn at the last point after administration, and the elimination rate constant was obtained by ln(concentration) time linear regression.
# Due to the drug having significant individual differences in rats, it could not be uniformly fitted with a PK atrioventricular model; as such, the pharmacokinetic parameters analyzed in this study were calculated using a non-atrioventricular model. The pharmacokinetic parameters are defined as follows: Cmax is the maximum blood concentration after administration and absorption, Tmax is the time required to reach Cmax, t1/2 is the time required to eliminate half of the plasma drug concentration after the drug distribution in the body reaches equilibrium, Cl/F is the apparent clearance rate, AUC0-tn is the area under the blood concentration time curve within the dosing interval, AUC0-∞ is the area under the plasma concentration time curve from 0 to infinity, MRT is the average time that all drug molecules stay in the body, and Vss/F is the steady-state apparent distribution volume, which is the product of the clearance rate and average residence time.
# [3] = po, single-dose intragastric 2.5 mg/kg
smiles,measurement,setting,value
"CC1(C)OC2CC(=O)OCC23C1C/C(=N\OCCN1CCOCC1)C1(C)C3CC[C@@]2(C)[C@H](c3ccoc3)OC(=O)C3OC312 (stereo partly drawn) [HY-071085, (12S,12aS,E)-12-(furan-3-yl)-6,6,8a,12a-tetramethyl-8-((2-morpholinoethoxy)imino)dodecahydro-1H,3H-oxireno [2,3-d]pyrano [4’,3’:3,3a]isobenzofuro [5,4-f]isochromene-3,10(9aH)-dione]","stability in plasma, accuracy","[1]; injector (24h, 4 °C), 2 ng/mL",105.00%
same,"stability in plasma, accuracy","[1]; injector (24h, 4 °C), 800 ng/mL",101.55%
same,"stability in plasma, accuracy","[1]; long-term freezing (−80 °C, 30 days), 2 ng/mL",112.40%
same,"stability in plasma, accuracy","[1]; long-term freezing (−80 °C, 30 days), 800 ng/mL",101.50%
same,stability in rat plasma,"[1]; long-term freezing, repeated freezing and thawing, 37 °C 8 h, injector 4 °C 24 h",stable
same,"stability in plasma, accuracy","[1]; normal temperature (8h), 2 ng/mL",105.90%
same,"stability in plasma, accuracy","[1]; normal temperature (8h), 800 ng/mL",97.70%
same,"stability in plasma, accuracy","[1]; repeated freeze-thaw (three times), 2 ng/mL",97.40%
same,"stability in plasma, accuracy","[1]; repeated freeze-thaw (three times), 800 ng/mL",97.33%
same,bioavailability,[2]; oral,13.1%
same,bioavailability,[2]; po,~13.1%
same,AUC(0-inf),"[2]; po, S-IG 1.25 mg/kg",54.1 ± 25.4 ng·h/mL
same,CL/F,"[2]; po, S-IG 1.25 mg/kg",517 mL/min/kg
same,Cmax,"[2]; po, S-IG 1.25 mg/kg",37.9 ± 20.1 ng/mL
same,MRT,"[2]; po, S-IG 1.25 mg/kg",80.4 ± 31.8 min
same,Tmax,"[2]; po, S-IG 1.25 mg/kg",29.4 ± 25.8 min
same,half-life,"[2]; po, S-IG 1.25 mg/kg",52.8 ± 26.4 min
same,AUC,"[2]; po, S-IG 1.25 mg/kg",51.1 ± 24.9 ng·h/mL
same,Vd/F,"[2]; po, S-IG 1.25 mg/kg",35.3 ± 19.1 L/kg
same,AUC(0-inf),"[2]; po, S-IG 5 mg/kg",610 ± 235 ng·h/mL
same,CL/F,"[2]; po, S-IG 5 mg/kg",156 mL/min/kg
same,Cmax,"[2]; po, S-IG 5 mg/kg",436 ± 206 ng/mL
same,MRT,"[2]; po, S-IG 5 mg/kg",87.6 ± 29.4 min
same,Tmax,"[2]; po, S-IG 5 mg/kg",41.4 ± 33 min
same,half-life,"[2]; po, S-IG 5 mg/kg",49.8 ± 7.8 min
same,AUC,"[2]; po, S-IG 5 mg/kg",606 ± 236 ng·h/mL
same,Vd/F,"[2]; po, S-IG 5 mg/kg",11.5 ± 6.03 L/kg
same,AUC(0-inf),[2]; [3],195 ± 90 ng·h/mL
same,half-life,[2]; [3],49.8 ± 7.2 min
